Assays:
B. subtilis (MTCC121) = assay: Bioactivity enhancement of antibiotics (killing, broth/titre assay) against B. subtilis; format: cell-based, Bacillus subtilis; conditions: Table 5
M. smegmatis (MC^2 155) = assay: Bioactivity enhancement of antibiotics (killing, broth/titre assay) against M. smegmatis; format: cell-based, Mycobacterium smegmatis; conditions: Table 5
E. coli (CA8000) = assay: Bioactivity enhancement of antibiotics (killing, broth/titre assay) against E. coli
C. albicans = assay: Enhancement of anticandidial activity of clotrimazole, broth assay
[1] = test system: M.tuberculosis H37Rv (ATCC 27294); assay: Bioactivity enhancement of anti-tubercular drugs, radiometric BACTEC 460 TB system; format: cell-based, Mycobacterium tuberculosis; conditions: BACTEC 460, 12 days
[2] = Bioavailability test using gastro-intestinal epithelium (U-tube); format: in vitro ADME, goat; conditions: in combination; FIG. 3
From the text: Specially designed U-tubes of glass consisting of two components (opposite-L type) were used in which one open end of an L-shaped was tapered to fit within the end of the other L-tube (as described in U.S. Pat. No. 6,410,059). The membrane of goat gut (initial part) was stretched and fixed to act as the barrier between the two ends such that by joining the two L-tubes, a U-tube was made. Sterile distilled water was then filled in both the sides to equal height/level. The antibiotic/compound was added to the donor tube (tapered) and through spectro-photometer, the transfer of molecule was observed using UV and visible absorption maxima of the respective molecules by taking the OD at defined wavelengths (264 nm for isoniazid).

[3] = test system: E. coli cells (CA 8000), λ phage; assay: λ phage adsorption on E. coli cells; conditions: Cells pretreated with niaziridin @ 1 ug/ml
Description: Overnight grown bacterial culture (Escherichia coli, CA 8000) was divided into 5 ml of aliquot each in screw cap tubes. One of the tube with the bacterial culture was treated with niaziridin to a final concentration of 1 μg/ml. Both the control and the treated tubes were incubated at 37° C. for 4 hours. The cultures were then infected with λ phage (MOI=10) for 10 minutes at 37° C. (for adsorption) followed by centrifugation at 10000 RPM for 10 minutes at 4° C.
The supernatant and the pellets for both treated and untreated cultures were then compared for the phage titer by plating on top agar containing sensitive bacteria at different dilutions.

E. coli DH5α = assay: Enhancement of bacterial transformation with pUC18 plasmid DNA, DH5α
Description: (§1) Overnight grown bacterial E. coli DH5α (Sambrook at al^28) cells were diluted to 10 folds in growth medium and treated with niaziridin @1-10 μg/ml for 4 hours at 37° C. in a shaker (200 RPM).
(§2) These log phase cells were then treated with calcium chloride to induce competence and then transformed with pUC18 plasmid DNA and plated on Luria agar plates containing 100 μg/ml ampicillin.

E. coli CA8000 = assay: Enhancement of bacterial transformation with pUC18 plasmid DNA, CA8000
Description: as §1, §2

[4] = anaesthetized rat, 1-10 mg/kg I.V; cited from earlier work
[5] = human volunteers; formulation containing rifampicin, pyrazinamide and isoniazid; cited from earlier work
[6] = Amp (0.01) + Niaziridin 1.0 μg/ml
[7] = Nal (2.0) + Niaziridin 1.0 μg/ml
[8] = Rif (0.05) + Niaziridin 1.0 μg/ml
[9] = Tet (1.0) + Niaziridin 1.0 μg/ml
[10] = Amp (0.1) + Niaziridin 1.0 μg/ml
[11] = Nal (1.0) + Niaziridin 1.0 μg/ml
[12] = Tet (2.0) + Niaziridin 1.0 μg/ml
[13] = Cells pretreated with niaziridin at 1 ug/ml
[14] = Cells pretreated with niaziridin at 10 ug/ml
[15] = Table 4, Amp 6 μg/ml + Niaziridin 0.1 μg/ml
[16] = Table 4, Nal 6 μg/ml + Niaziridin 0.1 μg/ml
[17] = Table 4, Rif 20 μg/ml + Niaziridin 0.1 μg/ml
[18] = Table 4, Rif 30 μg/ml + Niaziridin 0.1 μg/ml
[19] = Table 4, Tet 1 μg/ml + Niaziridin 0.1 μg/ml
[20] = Table 4, Tet 2 μg/ml + Niaziridin 0.1 μg/ml

## CC1(C)S[C@@H]2[C@H](NC(=O)[C@H](N)c3ccccc3)C(=O)N2[C@H]1C(=O)O [Amp, ampicillin, reference compound]
B. subtilis (MTCC121); Amp (0.01) alone
  % Survival: 72.5%
  Titre: 2.9 × 10^8
M. smegmatis (MC^2 155); Amp (0.1) alone
  % Survival: 25.0%
  Titre: 1.0 × 10^8
E. coli (CA8000); Table 4, Amp 6 μg/ml alone
  % Survival: 3.69%
  Titre: 8.5 × 10^6

## Clc1ccccc1C(c1ccccc1)(c1ccccc1)n1ccnc1 [Clotrimazole, clotrimazole, reference compound]
C. albicans; Clotrimazole alone 0.5 ug/ml
  Cfu/ml at 36 h: 23.6 × 10^5 Cfu/ml

## CCn1cc(C(=O)O)c(=O)c2ccc(C)nc21 [Nal, nalidixic acid, reference compound]
B. subtilis (MTCC121); Nal (2.0) alone
  % Survival: 7.75%
  Titre: 3.1 × 10^7
M. smegmatis (MC^2 155); Nal (1.0) alone
  % Survival: 92.5%
  Titre: 3.7 × 10^8
E. coli (CA8000); Table 4, Nal 6 μg/ml alone
  % Survival: 1.0%
  Titre: 6.0 × 10^6

## CC1OC(Oc2ccc(CC#N)cc2O)C(O)C(O)C1O (centres unmarked) [Niaziridin, NIAZIRIDIN]
B. subtilis (MTCC121); [6]
  % Survival: 14.2%
  Folds enhancement in killing: 5.1 folds
  Titre: 5.7 × 10^7
B. subtilis (MTCC121); [7]
  % Survival: 1.1%
  Folds enhancement in killing: 7.0 folds
  Titre: 4.6 × 10^6
B. subtilis (MTCC121); [8]
  % Survival: 2.7%
  Folds enhancement in killing: 19.4 folds
  Titre: 1.1 × 10^7
B. subtilis (MTCC121); [9]
  % Survival: 5.0%
  Folds enhancement in killing: 3.5 folds
  Titre: 2.0 × 10^7
B. subtilis (MTCC121); range over both Gram (+) strains (B. subtilis and M. smegmatis)
  Enhancement of activity of rifampicin, ampicillin, nalidixic acid: 1.2-19 folds
M. smegmatis (MC^2 155); [10]
  % Survival: 5.25%
  Folds enhancement in killing: 4.7 folds
  Titre: 2.1 × 10^7
M. smegmatis (MC^2 155); [11]
  % Survival: 75.0%
  Folds enhancement in killing: 1.2 folds
  Titre: 3.0 × 10^8
M. smegmatis (MC^2 155); [8]
  % Survival: 16.75%
  Folds enhancement in killing: 1.9 folds
  Titre: 6.7 × 10^6
M. smegmatis (MC^2 155); [12]
  % Survival: 7.5%
  Folds enhancement in killing: 4.0 folds
  Titre: 3.0 × 10^7
[1]; FIG. 1
  Enhancement of antimycobacterial activity of rifampicin (Growth Index): able to enhance
[1]; FIG. 2
  Enhancement of antimycobacterial activity of isoniazid (Growth Index): able to enhance
[2]
  Uptake of nutrients like Vitamine B12 through the intestinal gut membrane: able to facilitate the uptake
[3]; MOI 5
  Phage titer, Pellet: 7.7 10^7 pfu
  Phage titer, Supernatant: 7.7 10^7 pfu
[3]; MOI 10
  Phage titer, Pellet: 18.0 10^7 pfu
  Phage titer, Supernatant: 8.0 10^7 pfu
C. albicans; Clotrimazole 0.5 ug/ml + Niaziridin 10 ug/ml
  Cfu/ml at 36 h: 4.5 × 10^5 Cfu/ml
C. albicans; Clotrimazole 0.5 ug/ml + Niaziridin 10 ug/ml, 36 h
  Fold enhancement of lethal activity: 5.2 fold
E. coli DH5α; [13]
  Fold enhancement in DNA transformation: 1.9 fold
  Titre (transformants): 16.0 10^4
E. coli DH5α; [14]
  Fold enhancement in DNA transformation: 2.3 fold
  Titre (transformants): 20.0 10^4
E. coli CA8000; [13]
  Fold enhancement in DNA transformation: 1.9 fold
  Titre (transformants): 8.30 10^3
E. coli CA8000; [14]
  Fold enhancement in DNA transformation: 5.5 fold
  Titre (transformants): 24.0 10^3
E. coli (CA8000); [15]
  % Survival: 0.69%
  Fold enhancement in killing over antibiotic alone: 5.3 fold
  Titre: 1.6 × 10^6
E. coli (CA8000); [16]
  % Survival: 0.02%
  Fold enhancement in killing over antibiotic alone: 50.0 fold
  Titre: 1.2 × 10^5
E. coli (CA8000); [17]
  % Survival: 0.0035%
  Fold enhancement in killing over antibiotic alone: 38.8 fold
  Titre: 3.9 × 10^3
E. coli (CA8000); [18]
  % Survival: 0.003%
  Fold enhancement in killing over antibiotic alone: 12.6 fold
  Titre: 3.0 × 10^3
E. coli (CA8000); [19]
  % Survival: 0.5%
  Fold enhancement in killing over antibiotic alone: 2.3 fold
  Titre: 3.0 × 10^6
E. coli (CA8000); [20]
  % Survival: 0.11%
  Fold enhancement in killing over antibiotic alone: 5.2 fold
  Titre: 7.5 × 10^5
E. coli (CA8000); text summary of Table 4
  Enhancement of activity of commonly used antibiotics (rifampicin, tetracycline, nalidixic acid etc): enhanced activity

## CO[C@H]1/C=C/O[C@@]2(C)Oc3c(C)c(O)c4c(O)c(c(/C=N/N5CCN(C)CC5)c(O)c4c3C2=O)NC(=O)/C(C)=C\C=C\[C@H](C)[C@H](O)[C@@H](C)[C@@H](O)[C@@H](C)[C@H](OC(C)=O)[C@@H]1C [Rif, rifampicin]
B. subtilis (MTCC121); Rif (0.05) alone
  % Survival: 52.5%
  Titre: 2.1 × 10^8
M. smegmatis (MC^2 155); Rif (0.05) alone
  % Survival: 32.5%
  Titre: 1.3 × 10^7
E. coli (CA8000); Table 2, Rif 20 μg/ml alone
  % Survival: 24.2%
  Titre: 3.4 × 10^7
E. coli (CA8000); Table 2, Rif 30 μg/ml alone
  % Survival: 21.4%
  Titre: 3.0 × 10^7
E. coli (CA8000); Table 3, Rif 20 μg/ml alone
  % Survival: 40.0%
  Titre: 1.00 × 10^8
E. coli (CA8000); Table 3, Rif 30 μg/ml alone
  % Survival: 23.3%
  Titre: 5.81 × 10^7
E. coli (CA8000); Table 4, Rif 20 μg/ml alone
  % Survival: 0.0136%
  Titre: 1.5 × 10^4
E. coli (CA8000); Table 4, Rif 30 μg/ml alone
  % Survival: 0.038%
  Titre: 3.8 × 10^4

## CN(C)[C@@H]1C(=O)C(C(N)=O)=C(O)[C@@]2(O)C(=O)C3=C(O)c4c(O)cccc4[C@@](C)(O)[C@H]3C[C@@H]12 [Tet, tetracycline, reference compound]
B. subtilis (MTCC121); Tet (1.0) alone
  % Survival: 17.5%
  Titre: 7.0 × 10^7
M. smegmatis (MC^2 155); Tet (2.0) alone
  % Survival: 30.0%
  Titre: 1.2 × 10^8
E. coli (CA8000); Table 4, Tet 1 μg/ml alone
  % Survival: 1.16%
  Titre: 7.0 × 10^6
E. coli (CA8000); Table 4, Tet 2 μg/ml alone
  % Survival: 0.58%
  Titre: 3.5 × 10^6

## CCOC(=S)NCc1ccc(OC2OC(C)C(O)C(O)C2O)cc1 (centres unmarked) [niazimicin]
[4]
  Hypotensive and bradycardiac effect: produced hypotensive and bradycardiac effect

## COC(=S)NCc1ccc(O[C@@H]2O[C@@H](C)[C@H](O)[C@@H](O)[C@H]2O)cc1 [niazinin A]
[4]
  Hypotensive and bradycardiac effect: produced hypotensive and bradycardiac effect

## O=C(/C=C/C=C/c1ccc2c(c1)OCO2)N1CCCCC1 [piperine]
[5]
  Comparative levels and peak concentration of the drugs in the presence of piperine: higher

## niaziminin A
[4]
  Hypotensive and bradycardiac effect: produced hypotensive and bradycardiac effect

## niaziminin B
[4]
  Hypotensive and bradycardiac effect: produced hypotensive and bradycardiac effect

## niazinin B
[4]
  Hypotensive and bradycardiac effect: produced hypotensive and bradycardiac effect

Source: patent US6858588B2, “Nitrile glycoside useful as a bioenhancer of drugs and nutrients, process of its isolation from moringa oleifera” (Council of Scientific and Industrial Research, priority 2003, dated 2005)
